Measured values reported in ChEMBL document CHEMBL3137667, “[Drug-induced liver injury; fourteenth updated edition of the bibliographic database of liver injuries and related drugs]” (Gastroenterol Clin Biol, 2004).

Columns and labels:
[1] = Presence of at least one case with successful reintroduction. [column 'REINT' in source]; settings: human
[2] = Comments (NB not yet translated). [column 'COMMENTAIRES' in source]; settings: human
[3] = Times to onset, minimal and maximal, observed in the indexed observations. [column 'DELAI' in source]; settings: human
[4] = Proposed mechanism(s) of liver damage. [column 'MEC' in source]; settings: human
[5] = human
[6] = human; remark: listed apart in the source
[7] = human, serum, 4383 h
[8] = human; remark: listed apart in the source
[9] = human; remark: listed apart in the source
[10] = human; remark: listed apart in the source
[11] = human; remark: listed apart in the source
[12] = human; remark: listed apart in the source
[13] = human; remark: listed apart in the source
[14] = human; remark: listed apart in the source
[15] = Highest frequency of moderate liver toxicity observed during clinical trials, expressed as a percentage. [column '% BIOL' in source]; settings: human
[16] = Highest frequency of acute liver toxicity observed during clinical trials, expressed as a percentage. [column '% AIGUE' in source]; settings: human
[17] = human, serum
[18] = human; remark: listed apart in the source
[19] = human, serum; remark: listed apart in the source
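Wherever Hepatotoxicity (association with vascular disease) is given: count of indexed literature references reporting vascular liver injury in humans, e.g. peliosis hepatitis, hepatic veno-occlusive disease or Budd-Chiari syndrome.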
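Wherever Hepatotoxicity (benign tumour) is given: value is a count of indexed literature references citing a benign tumour confirmed by histopathology.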
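Wherever Hepatotoxicity (choleostasis) is given: human cholestatic liver injury, shown by histopathology or by peak ALT or AST elevation over alkaline phosphatase ratio below 2, value counts indexed literature reports.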
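Wherever Hepatotoxicity (chronic liver disease) is given: chronic liver injury confirmed by histopathology or persistently raised serum aminotransferase activity beyond 6 months, value given as the count of indexed literature references.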
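Wherever Hepatotoxicity (cirrhosis) is given: value is a count of indexed literature references reporting cirrhosis confirmed by histopathology.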
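Wherever Hepatotoxicity (cytolytic) is given: human cytolytic liver injury, shown by histopathology or by a ratio above 5 of peak ALT or AST elevation to alkaline phosphatase elevation, value counts indexed references.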
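Wherever Hepatotoxicity (granulomatous hepatitis) is given: value is a count of indexed literature references reporting granulomatous liver disease confirmed by histopathology.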
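Wherever Hepatotoxicity (malignant tumour) is given: malignant tumour confirmed by histopathology, value gives the count of indexed literature references reporting it.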
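Wherever Hepatotoxicity (severe hepatitis) is given: human clinical data: severe hepatitis, meaning potentially life-threatening liver failure or clinically observed cases, the value counts how many indexed literature references report it.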
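Wherever Hepatotoxicity (steatosis) is given: steatosis confirmed by histopathology, value is the count of indexed references.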

| SMILES | Hepatotoxicity (successful reintroduction) [1] | Hepatotoxicity (comment) [2] | Hepatotoxicity (time to onset) [3] | Hepatotoxicity (mechanism) [4] | Hepatotoxicity (cytolytic) [5] | Hepatotoxicity (choleostasis) [6] | Hepatotoxicity (chronic liver disease) [7] | Hepatotoxicity (cirrhosis) [8] | Hepatotoxicity (granulomatous hepatitis) [9] | Hepatotoxicity (association with vascular disease) [10] | Hepatotoxicity (steatosis) [11] | Hepatotoxicity (malignant tumour) [12] | Hepatotoxicity (benign tumour) [13] | Hepatotoxicity (animal toxicity known) [14] | Hepatotoxicity (moderate) [15] [%] | Hepatotoxicity (acute) [16] [%] | Hepatotoxicity (moderate) [17] | Hepatotoxicity (severe hepatitis) [18] | Hepatotoxicity (acute) [19] | other results |
| --- | --- | --- | --- | --- | --- | --- | --- | --- | --- | --- | --- | --- | --- | --- | --- | --- | --- | --- | --- | --- |
| CC(=O)Nc1ccc(O)cc1 [ACETAMINOPHEN] | yes | I/ALCOOL/PHENYTOINE/PHENOBARBITAL/IFN/ZIDOVUDINE #CBP | 1 day - 12 years | Allergic, Toxic Metabolite | 98 | 5 | 7 | 5 | 1 | 0 | 1 | 0 | 0 | yes | – | – | – | – | – | – |
| CN1CCN(C2=Nc3cc(Cl)ccc3Nc3ccccc32)CC1 [CLOZAPINE] | yes | CHOLANGITE | 3 days - 6 weeks | Dose-dependant | 8 | 4 | 0 | 0 | 0 | 0 | 0 | 0 | 0 | A | 60 | 1 | 26 | 1 | – | – |
| O=C1CN(/N=C/c2ccc(-c3ccc([N+](=O)[O-])cc3)o2)C(O)=N1 [DANTROLENE] | yes | CHOLANGITE | 7 days - 1 year | – | 10 | 6 | 1 | 0 | 0 | 0 | 0 | 0 | 0 | yes | 1.8 | 0.6 | 11 | 7 | 11 | – |
| COc1cccc2c1C(=O)c1c(O)c3c(c(O)c1C2=O)C[C@@](O)(C(=O)CO)C[C@@H]3O[C@H]1C[C@H](N)[C@H](O)[C@H](C)O1 [DOXORUBICIN] | yes | I/MERCAPTOPURINE/VINBLASTINE CHOLANGITE MVO REACTIVATION_HVB | 1 week - 3 weeks | Reactive metabolite, Dose-dependant | 4 | 3 | 0 | 0 | 0 | 5 | 0 | 1 | 0 | yes | 84.6 | – | 8 | 4 | 7 | – |
| NC(N)=Nc1nc(CSCCN/C=N/S(=O)(=O)c2ccc(Br)cc2)cs1 [EBROTIDINE] | yes | AC_ANTI-ML | 2 weeks - 6 months | – | 2 | 0 | 1 | 1 | 0 | 0 | 0 | 0 | 0 | yes | 0 | 0 | 0 | 1 | 2 | – |
| CN(C)CCCN1c2ccccc2CCc2ccccc21 [IMIPRAMINE] | yes | RC/DESPRAMINE CHOLESTASE_PROLONGEE | 1 week - 1 year | Allergic, Reactive metabolite | 9 | 13 | 1 | 0 | 0 | 0 | 0 | 0 | 0 | yes | – | – | – | – | – | – |
| O=C1CN(/N=C/c2ccc([N+](=O)[O-])o2)C(=O)N1 [NITROFURANTOIN] | yes | AC_ANTI-ML/-N RC/FURAZOLIDONE/NIFUROXIME CHOLANGITE | 2 days - 10 years | – | – | – | 37 | 7 | – | 0 | 1 | 1 | 1 | yes | – | – | 2 | – | – | Hepatotoxicity (moderate) ([15]; Liver): 0%; Hepatotoxicity (acute) ([16]; Liver): 0%; Hepatotoxicity (mechanism) ([4]; Liver): Allergic; Hepatotoxicity (cytolytic) ([5]; Liver): 9; Hepatotoxicity (choleostasis) ([6]; Liver): 27; Hepatotoxicity (severe hepatitis) ([18]; Liver): 8; Hepatotoxicity (granulomatous hepatitis) ([9]; Liver): 2 |
| CNC(=C[N+](=O)[O-])NCCSCc1ccc(CN(C)C)o1 [RANITIDINE] | yes | AC_ANTI-ML/-N CHOLANGITE | 4 days - 3 months | Allergic, Dose-dependant, Toxic Metabolite | 12 | 15 | 1 | 0 | 1 | 0 | 1 | 0 | 0 | yes | 18.6 | 0 | 37 | 2 | – | – |
| CN(N=O)C(=O)N[C@@H](C=O)[C@@H](O)[C@H](O)[C@H](O)CO [STREPTOZOCIN] | yes | CHOLANGITE/IAH | 4 days - 6 weeks | – | 1 | 0 | 0 | 0 | 0 | 0 | 0 | 0 | 0 | yes | 67 | 35.3 | 9 | 2 | 3 | – |
